# According to patent publication US10945992B1, “Dosage forms of rofecoxib and related methods” (Tremeau Pharmaceuticals, Inc., priority 2019, dated 2021):
# “Also recorded” adds a separate entry of the source. Like-named read-outs stand apart in the source and are kept apart here.
# Legend:
# [1] = biological target: cyclooxygenase-1 (COX-1) isoenzyme (Homo sapiens, UniProt P23219); settings: at therapeutic concentrations; listed as rofecoxib; cited from earlier work
# [2] = TRM-201-PK-101 safety: treatment-emergent adverse events; format: in vivo, human; settings: 25 mg, 101 study
# From the text: Safety and tolerability will include monitoring and recording of AEs, clinical laboratory assessments (hematology, serum chemistry, and urinalysis), vital sign measurements, 12-lead ECG assessments, and physical examination findings.
# A treatment-emergent AE (TEAE) is defined as any event not present before exposure to study drug or any event already present that worsens in either intensity or frequency after exposure to study drug.
# All safety data will be summarized for the PILOT portion, MAIN study, and FOOD-EFFECT sub study combined. Subjects who received 2 single doses will be counted once with all of their safety data combined. The incidence of adverse events will be presented by the MedDRA system organ class and preferred term, relationship to the test article, and severity. Descriptive statistics of clinical laboratory results and vital signs will be presented, as well as summaries of changes from baseline (from the Check-in visit(s)) and of clinically notable values.
# All AE data will be presented in a data listing by study part and within the FOOD-EFFECT sub study by treatment sequence. TEAEs will be summarized overall, as well as by severity and relationship to study drug. Serious AEs and AEs leading to discontinuation of study drug will also be presented in the data listings and summarized.
# [3] = TRM-201-PK-101 single-dose pharmacokinetic study, 25 mg, fasted healthy subjects; format: in vivo, human; settings: for Cmax / AUC(0-inf) / AUC: human, plasma, oral
# Experimental: A Single-Dose, Open-Label, Phase 1, Adaptive Pharmacokinetic Study of TRM-201 (Rofecoxib) 25 mg Administered to Healthy Subjects in a Fasting State, with Comparison to Historical Pharmacokinetic Parameters of Previously Marketed Rofecoxib and a Food-Effect Substudy (“TRM-201-PK-101” or “101 PK Study”)
# This is a single-center, open-label, adaptive PK study of TRM-201 consisting of a MAIN study with a PILOT portion conducted under a fasted condition, and a two-period crossover, FOOD-EFFECT sub study under both fasted and fed conditions. The PILOT portion of the study (21 subjects) will include a single dose of TRM-201 in a single group to assess the PK of TRM-201 in healthy volunteers under fasted conditions. Following completion of the PILOT portion and the decision to move forward, an additional 16 subjects will be enrolled in the MAIN study and an additional 16 subjects will be enrolled in the FOOD-EFFECT sub study. The MAIN study will include a single dose of TRM-201 to assess the PK of TRM-201 in healthy volunteers under fasted conditions. The FOOD-EFFECT sub study is a single-dose, two-period crossover study. A single dose of TRM-201 will be given on Day 1 of each dosing period to assess the PK of TRM-201 in healthy volunteers under both fasted and fed conditions. Subjects will be randomized 1:1 into the two sequences fasted followed by fed, and fed followed by fasted.
# After Check-In, subjects will fast overnight for at least 10 hours before study drug administration. While fasting, subjects will have nothing to eat and only water to drink. Water will be permitted as desired, except for the period between 1 hour before and 1 hour after study drug dosing (excepting as permitted for dosing). After the 2-hour PK blood sample, subjects will be allowed one 250-mL cup of clear apple juice. After the 4-hour PK blood sample, subjects will be served a light lunch. Following the light lunch, subjects should receive standardized meals according to the clinic's standard procedures that are scheduled at consistent times and at least 15 minutes before or 15 minutes after PK sampling time points. Blood will be withdrawn for PK analysis at predefined time points as defined in Table 8. The last time point will be 120 hours after dosing with study drug. After the 120-hour PK sample, the EOS procedures will be completed, and subjects will be discharged from the clinic.
# This is an open-label PK study. Each subject is scheduled to receive a single 25-mg dose of TRM-201 in the PILOT portion and the MAIN study, and a single 25-mg dose of TRM-201 twice in the FOOD-EFFECT sub study. TRM-201 manufactured and formulated as Batch 5 (B18090) and Batch 6 (B18091), above, will be used in the study.
# The time points and windows for PK blood sampling for the PILOT portion, Main study and FOOD-EFFECT substudy are presented in Table 14 below. For each sample, approximately 3 mL of blood will be drawn. The samples may be obtained by a straight stick or via an in-dwelling intravenous (IV) catheter in a forearm vein. Additional details for the collection, processing, storage, and shipping of PK samples will be provided in the study manual.
# Pharmacokinetic samples will be analyzed using a validated assay for rofecoxib in human plasma. Assay results and validation details will be provided in a separate bioanalytical report.
# The following PK parameters for rofecoxib will be calculated as primary endpoints using standard noncompartmental methods for both the PILOT portion and MAIN study, and the FOOD-EFFECT sub study: AUC0-∞ and Cmax. Secondary endpoints include Tmax, and t1/2. Additional PK parameters (e.g., CL/F, and Vd/F) will also be calculated using standard noncompartmental methods.
# The PK parameters of rofecoxib will be analyzed based on the actual sampling times. All parameters will be calculated using the Phoenix® WinNonlin® version 6.4 or higher (Certara USA Inc., Princeton, N.J.) or SAS® version 9.3 or higher (SAS Institute Inc., Cary, N.C.). […]
# [4] = 25 mg, versus Schwartz data, FIG. 28
# Sequence of cyclooxygenase-1 (COX-1) isoenzyme (P23219 24-599): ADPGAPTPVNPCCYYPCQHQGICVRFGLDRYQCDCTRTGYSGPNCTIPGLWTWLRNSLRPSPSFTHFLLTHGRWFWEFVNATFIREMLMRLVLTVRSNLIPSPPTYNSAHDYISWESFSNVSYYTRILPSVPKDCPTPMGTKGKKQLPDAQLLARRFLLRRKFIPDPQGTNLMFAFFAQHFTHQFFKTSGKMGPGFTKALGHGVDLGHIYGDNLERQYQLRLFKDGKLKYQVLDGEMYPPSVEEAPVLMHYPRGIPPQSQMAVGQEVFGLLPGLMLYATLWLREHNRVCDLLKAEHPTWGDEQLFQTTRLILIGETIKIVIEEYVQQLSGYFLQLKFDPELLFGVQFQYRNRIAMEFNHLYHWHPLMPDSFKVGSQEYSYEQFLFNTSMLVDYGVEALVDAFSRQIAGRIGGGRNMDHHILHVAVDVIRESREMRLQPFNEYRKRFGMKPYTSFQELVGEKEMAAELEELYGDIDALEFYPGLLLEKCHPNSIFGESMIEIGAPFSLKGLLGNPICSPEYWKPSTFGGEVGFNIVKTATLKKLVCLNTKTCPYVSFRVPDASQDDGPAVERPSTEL
smiles,measurement,setting,value
"CS(=O)(=O)c1ccc(C2=C(c3ccccc3)C(=O)OC2)cc1 [TRM-201, 4-[4-(methylsulfonyl)phenyl]-3-phenyl-2(5H)-furanone]",inhibition of COX-1,[1],does not inhibit; also recorded: not cyclooxygenase 1 (COX-1)
same,serious TEAE or TEAE leading to discontinuation of the study,[2],No subjects
same,subjects observed with TEAEs,[2],four
same,"subjects observed with TEAEs, share of the cohort",[2],7.5%
same,subjects with TEAE related to treatment,[2],2 subjects
same,"subjects with TEAE related to treatment, share of the cohort",[2],3.8%
same,AUC0-∞ compared to historical data,[3]; [4],larger
same,Cmax compared to historical data,[3]; [4],higher
same,Cmax,"[3]; 17.5 mg, 17.5 mg formulation, estimated from 101 data, read-out: estimated Cmax",~238 ng/mL
same,AUC(0-inf),"[3]; 17.5 mg, extrapolated from 25 mg assuming dose linearity, read-out: extrapolated AUC0-∞",3250 ng·h/mL
same,Cmax,"[3]; 17.5 mg, extrapolated from 25 mg assuming dose linearity, read-out: extrapolated Cmax",223 ng/mL
same,Cmax,"[3]; 20 mg, 20 mg formulation, estimated from 101 data, read-out: estimated Cmax",~266 ng/mL
same,AUC(0-inf),"[3]; 20 mg, extrapolated from 25 mg assuming dose linearity, read-out: extrapolated AUC0-∞",3710 ng·h/mL
same,Cmax,"[3]; 20 mg, extrapolated from 25 mg assuming dose linearity, read-out: extrapolated Cmax",254 ng/mL
same,Cmax,"[3]; 25 mg, 25 mg formulation in TRM-201-PK-101, as stated in Example 6, read-out: Geometric mean Cmax",320 ng/mL
same,AUC(0-inf),"[3]; 25 mg, fasted, FIG. 25, read-out: geometric mean AUC0-∞",4640 ng·h/mL
same,Cmax,"[3]; 25 mg, fasted, FIG. 25, read-out: geometric mean Cmax",318 ng/mL
same,AUC,"[3]; 17.5 mg formulation, estimated from 101 data, read-out: estimated AUC",~3280 ng·h/mL
same,AUC,"[3]; 20 mg formulation, estimated from 101 data, read-out: estimated AUC",~3740 ng·h/mL
same,AUC,"[3]; 25 mg formulation in TRM-201-PK-101, as stated in Example 6, read-out: Geometric mean AUC",4680 ng·h/mL
